Assay results: US10294202B2, “Pyrrolidinones as herbicides” (FMC Corporation, priority 2013, dated 2019)
Where two headings read alike, the source gives them in different places.

How the values were obtained:
sedge, umbrella = assay: Test B flooded paddy test; format: in vivo, Cyperus difformis; conditions: 500 g ai/ha, Flood; scale of 0 to 100 where 0 is no effect and 100 is complete control
In short: (§1)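 Visual ratings from 0, meaning no effect, up to 100, meaning complete control, were made by comparison with untreated controls 13 to 15 days after treatment. Test compounds went straight into floodwater standing 3 cm over the soil of pots holding 2-leaf seedlings.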

barnyardgrass [1] = assay: Test B flooded paddy test; format: in vivo, Echinochloa crus-galli; conditions: 500 g ai/ha, Flood; scale of 0 to 100 where 0 is no effect and 100 is complete control
In short: as §1

velvetleaf = assay: Test C pre-/postemergence herbicide test; format: in vivo, Abutilon theophrasti
In short: (§2)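 Test compounds, formulated in a surfactant-containing non-phytotoxic solvent blend, are applied to seeded loam/sand soil (preemergence) and to young plants at the 1- to 4-leaf stage in peat-based medium (postemergence). Plants stay 13 to 15 days under greenhouse conditions, then are scored visually relative to controls, 0 = no effect, 100 = complete control.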

oat, wild = assay: Test C pre-/postemergence herbicide test; format: in vivo, Avena fatua
In short: as §2

lambsquarters = assay: Test C pre-/postemergence herbicide test; format: in vivo, Chenopodium album
In short: as §2

blackgrass = assay: Test C pre-/postemergence herbicide test; format: in vivo, Alopecurus myosuroides
In short: as §2

barnyardgrass [2] = assay: Test A pre-/postemergence herbicide test; format: in vivo, Echinochloa crus-galli; conditions: for pest or weed control at 1000 g/ha: Echinochloa crus-galli, 240 h, 1000 g ai/ha, read-out: Plant response rating, Barnyardgrass
In short: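 Planted in loam–sand blend; treated the same day preemergence by directed soil spray, while separately grown plants at one- to two-leaf stage got postemergence spray. Compared visually with untreated controls after approximately 10 days; 100 means complete control.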

wheat (winter wheat) = assay: Test C pre-/postemergence herbicide test; format: in vivo, Triticum aestivum
In short: as §2

corn = assay: Test C pre-/postemergence herbicide test; format: in vivo, Zea mays
In short: as §2

crabgrass, large = assay: Test C pre-/postemergence herbicide test; format: in vivo, Digitaria sanguinalis
In short: as §2

soybean = assay: Test C pre-/postemergence herbicide test; format: in vivo, Glycine max
In short: as §2

[3] = Postemergence, 31 g ai/ha, scale 0 to 100 (0 no effect, 100 complete control)
[4] = Postemergence, 62 g ai/ha, scale 0 (no effect) to 100 (complete control)
[5] = Postemergence, 125 g ai/ha, scale 0 to 100 (0 no effect, 100 complete control)
[6] = Postemergence, 250 g ai/ha, scale 0 to 100 (0 no effect, 100 complete control)
[7] = Preemergence, 31 g ai/ha, scale 0 to 100, 0 is no effect and 100 is complete control
[8] = Preemergence, 62 g ai/ha, scale 0 to 100 (0 no effect, 100 complete control)
[9] = Preemergence, 125 g ai/ha, scale 0 to 100 (0 no effect, 100 complete control)
[10] = Postemergence, 31 g ai/ha, scale 0 (no effect) to 100 (complete control)
[11] = Postemergence, 62 g ai/ha, scale 0 to 100 (0 no effect, 100 complete control)
[12] = Preemergence, 62 g ai/ha, scale 0 to 100
[13] = Preemergence, 31 g ai/ha, scale 0 to 100 (0 no effect, 100 complete control)
[14] = Preemergence, 250 g ai/ha, scale 0 to 100 (0 no effect, 100 complete control)

CN1CC(c2cccc(C(F)(F)F)c2)C(C(=O)Nc2cccc(F)c2F)C1=O (stereo not shown) [Compound 305]
Plant response rating, Sedge, Umbrella (sedge, umbrella): 0 | Plant response rating, Barnyardgrass (barnyardgrass [1]): 75 | Plant response rating, Velvetleaf (velvetleaf; [3]): 10 | Plant response rating, Velvetleaf (velvetleaf; [4]): 40 | Plant response rating, Velvetleaf (velvetleaf; [5]): 40 | Plant response rating, Velvetleaf (velvetleaf; [6]): 65 | Velvetleaf plant response rating (velvetleaf; [7]): 25 | Velvetleaf plant response rating (velvetleaf; [8]): 30 | Plant response rating, Velvetleaf (velvetleaf; [9]): 55 | Plant response rating (scale of 0 to 100), Velvetleaf (velvetleaf; Preemergence, 250 g ai/ha): 55 | Plant response rating, Oat, Wild (oat, wild; [3]): 0 | Plant response rating, Oat, Wild (oat, wild; [4]): 0 | Plant response rating, Oat, Wild (oat, wild; [5]): 0 | Plant response rating, Oat, Wild (oat, wild; [6]): 30 | Plant response rating, Lambsquarters (lambsquarters; [3]): 60 | Plant response rating, Lambsquarters (lambsquarters; [4]): 35 | Plant response rating, Lambsquarters (lambsquarters; [5]): 50 | Plant response rating, Lambsquarters (lambsquarters; [6]): 65 | Lambsquarters plant response rating (lambsquarters; [7]): 60 | Lambsquarters plant response rating (lambsquarters; [8]): 70 | Plant response rating, Lambsquarters (lambsquarters; [9]): 70 | Plant response rating (scale of 0 to 100), Lambsquarters (lambsquarters; Preemergence, 250 g ai/ha): 75 | Plant response rating, Blackgrass (blackgrass; [3]): 0 | Plant response rating, Blackgrass (blackgrass; [4]): 0 | Plant response rating, Blackgrass (blackgrass; [5]): 30 | Plant response rating, Blackgrass (blackgrass; [6]): 10 | Blackgrass plant response rating (blackgrass; [7]): 60 | Blackgrass plant response rating (blackgrass; [8]): 75 | Plant response rating, Blackgrass (blackgrass; [9]): 70 | Plant response rating (scale of 0 to 100), Blackgrass (blackgrass; Preemergence, 250 g ai/ha): 90 | Plant response rating, Barnyardgrass (barnyardgrass [2]; Postemergence, 125 g ai/ha, visual rating on 0 to 100 scale (0 no effect, 100 complete control), approx. 10 days): 80 | Plant response rating, Barnyardgrass (barnyardgrass [2]; Postemergence, 500 g ai/ha, 0 to 100 scale (0 no effect, 100 complete control)): 90 | Plant response rating, Barnyardgrass (barnyardgrass [2]; Preemergence, 125 g ai/ha, 0 to 100 scale where 0 is no effect and 100 is complete control): 80 | Barnyardgrass plant response rating (barnyardgrass [2]; Preemergence, 500 g ai/ha, visual rating on 0 to 100 scale (0 no effect, 100 complete control)): 90 | Plant response rating, Wheat (wheat (winter wheat); [3]): 0 | Plant response rating, Wheat (wheat (winter wheat); [4]): 0 | Plant response rating, Wheat (wheat (winter wheat); [5]): 0 | Plant response rating, Wheat (wheat (winter wheat); [6]): 5 | Wheat plant response rating (wheat (winter wheat); [7]): 45 | Wheat plant response rating (wheat (winter wheat); [8]): 90 | Plant response rating (scale of 0 to 100), Wheat (wheat (winter wheat); Preemergence, 250 g ai/ha): 90 | Plant response rating, Corn (corn; [3]): 0 | Plant response rating, Corn (corn; [4]): 5 | Plant response rating, Corn (corn; [5]): 40 | Plant response rating, Corn (corn; [6]): 45 | Corn plant response rating (corn; [7]): 65 | Corn plant response rating (corn; [8]): 75 | Plant response rating, Corn (corn; [9]): 75 | Plant response rating (scale of 0 to 100), Corn (corn; Preemergence, 250 g ai/ha): 80 | Plant response rating, Crabgrass, Large (crabgrass, large; [3]): 40 | Plant response rating, Crabgrass, Large (crabgrass, large; [4]): 55 | Plant response rating, Crabgrass, Large (crabgrass, large; [5]): 75 | Plant response rating, Crabgrass, Large (crabgrass, large; [6]): 80 | Crabgrass, Large plant response rating (crabgrass, large; [7]): 95 | Crabgrass, Large plant response rating (crabgrass, large; [8]): 95 | Plant response rating, Crabgrass, Large (crabgrass, large; [9]): 90 | Plant response rating (scale of 0 to 100), Crabgrass, Large (crabgrass, large; Preemergence, 250 g ai/ha): 95 | Plant response rating, Soybean (soybean; [3]): 10 | Plant response rating, Soybean (soybean; [4]): 0 | Plant response rating, Soybean (soybean; [5]): 0 | Plant response rating, Soybean (soybean; [6]): 0 | Soybean plant response rating (soybean; [7]): 0 | Soybean plant response rating (soybean; [8]): 0 | Plant response rating, Soybean (soybean; [9]): 0 | Plant response rating (scale of 0 to 100), Soybean (soybean; Preemergence, 250 g ai/ha): 0

O=C1NCC(c2ccc(F)c(F)c2)C1C(=O)Nc1cccc(F)c1F (stereo not shown) [Compound 17, N-(2,3-difluorophenyl)-4-(3,4-difluorophenyl)-2-oxo-3-pyrrolidinecarboxamide]
Plant response rating, Velvetleaf (velvetleaf; [10]): 0 | Plant response rating, Velvetleaf (velvetleaf; [11]): 0 | Plant response rating, Velvetleaf (velvetleaf; [5]): 0 | Plant response rating, Velvetleaf (velvetleaf; [6]): 0 | Plant response rating, Velvetleaf (velvetleaf; [12]): 0 | Plant response rating, Velvetleaf (velvetleaf; [9]): 0 | Plant response rating, Oat, Wild (oat, wild; [10]): 0 | Plant response rating, Oat, Wild (oat, wild; [11]): 0 | Plant response rating, Oat, Wild (oat, wild; [5]): 0 | Plant response rating, Oat, Wild (oat, wild; [6]): 0 | Plant response rating, Oat, Wild (oat, wild; [12]): 0 | Plant response rating, Oat, Wild (oat, wild; [9]): 0 | Plant response rating, Lambsquarters (lambsquarters; [10]): 0 | Plant response rating, Lambsquarters (lambsquarters; [11]): 0 | Plant response rating, Lambsquarters (lambsquarters; [5]): 0 | Plant response rating, Lambsquarters (lambsquarters; [6]): 0 | Plant response rating, Lambsquarters (lambsquarters; [12]): 60 | Plant response rating, Lambsquarters (lambsquarters; [9]): 60 | Plant response rating, Blackgrass (blackgrass; [10]): 0 | Plant response rating, Blackgrass (blackgrass; [11]): 0 | Plant response rating, Blackgrass (blackgrass; [5]): 0 | Plant response rating, Blackgrass (blackgrass; [6]): 0 | Plant response rating, Blackgrass (blackgrass; [12]): 50 | Plant response rating, Blackgrass (blackgrass; [9]): 80 | Blackgrass plant response rating (blackgrass; [13]): 5 | Plant response rating, Blackgrass (blackgrass; [14]): 95 | pest or weed control at 1000 g/ha (barnyardgrass [2]; post-emergence, Postemergence, 0 to 100 scale (0 no effect, 100 complete control)): 90% | pest or weed control at 1000 g/ha (barnyardgrass [2]; pre-emergence, Preemergence, visual rating on 0 to 100 scale (0 no effect, 100 complete control), approx. 10 days): 90% | Plant response rating, Wheat (wheat (winter wheat); [10]): 0 | Plant response rating, Wheat (wheat (winter wheat); [11]): 0 | Plant response rating, Wheat (wheat (winter wheat); [5]): 0 | Plant response rating, Wheat (wheat (winter wheat); [6]): 0 | Plant response rating, Wheat (wheat (winter wheat); [12]): 0 | Plant response rating, Wheat (wheat (winter wheat); [9]): 0 | Plant response rating, Corn (corn; [10]): 0 | Plant response rating, Corn (corn; [11]): 0 | Plant response rating, Corn (corn; [5]): 0 | Plant response rating, Corn (corn; [6]): 0 | Plant response rating, Corn (corn; [12]): 0 | Plant response rating, Corn (corn; [9]): 30 | Corn plant response rating (corn; [13]): 0 | Plant response rating, Corn (corn; [14]): 70 | Plant response rating, Crabgrass, Large (crabgrass, large; [10]): 0 | Plant response rating, Crabgrass, Large (crabgrass, large; [11]): 0 | Plant response rating, Crabgrass, Large (crabgrass, large; [5]): 45 | Plant response rating, Crabgrass, Large (crabgrass, large; [6]): 70 | Plant response rating, Crabgrass, Large (crabgrass, large; [12]): 98 | Plant response rating, Crabgrass, Large (crabgrass, large; [9]): 100 | Crabgrass, Large plant response rating (crabgrass, large; [13]): 95 | Plant response rating, Crabgrass, Large (crabgrass, large; [14]): 100 | Plant response rating, Soybean (soybean; [10]): 0 | Plant response rating, Soybean (soybean; [11]): 0 | Plant response rating, Soybean (soybean; [5]): 0 | Plant response rating, Soybean (soybean; [6]): 0 | Plant response rating, Soybean (soybean; [12]): 0 | Plant response rating, Soybean (soybean; [9]): 0
